# Tests used:
# [1] = test system: epigenetic age (methylation patterns of gene markers from buccal cells); experiment: Epigenetic age tests in AR (Age Regression) trials of the stem cell regime; format: in vivo, human
# From the text: Test subject's epigenetic age results are summarized below in the table of AR (Age Regression) trials: The second column of Table 1 reports the difference between epigenetic and chronological age; the third column reports the weeks of treatment, wherein there was at least one fusion cycle per week and generally two […] cycles initially, decreasing to the end of this period to one treatment every week or two; the fourth column reports the total elapsed time from baseline; the fifth column reports the regimes used; and the sixth column reports the nutritional cocktails. Several companies are presently offering epigenetic tests that purport to give epigenetic age that generally closely correlates with chronological age. The subject had taken a test offered by Osiris Green two months prior beginning treatment. […] This was in spite of their prior use of C60 for several years outside of the regime. […] This was far outside the expected range. […] It appears that using a demethylase promoter during stem cell stimulation produces a far more rapid decline in epigenetic age, as removing aberrant methylation is easiest during cell division. The epigenetic testing labs used—Osirus Green, TrueMe, EpiAging and Epimorphy—all used different sets of genes, yet results were within a few years for samples taken at the same time. […] It was initially hypothesized that any negative impact would be minimal if used only with mitochondrial switches, but the telomeres of rapidly dividing TACs were likely also lengthened, and this blocked TAC senescence and replacement. Since TACs divide frequently, they also experience rapid epigenetic aging, thus somatic cells derived from TACs with telomeres extended by an agonist reach higher epigenetic age that would ordinarily be possible.
# [2] = Trial of L-Dopa with C60 and mitochondrial fusion; format: in vivo, human; conditions: one subject
# Experimental: In some embodiments, the amino acid L-Dopa is administered with a mitochondrial fusion promoter to stimulate the proliferation of SCs. In some embodiments it is used with C60 and/or with a demethylase promoter. In some embodiments it is used with glutamine. […] Treatment with L-Dopa may be combined with 5-HTP and/or SRIs for a full spectrum effect.
# [3] = cited from earlier work; for half-life: stated in words
# [4] = mice, intraperitoneal injection; cited from earlier work
structure (smiles),measurement,setting,value
"CC(C)(O)[C@@H]1CC[C@](C)([C@H]2[C@@H](O)C[C@@]3(C)[C@@H]4C[C@H](O)[C@H]5C(C)(C)[C@@H](O)CC[C@@]56C[C@@]46CC[C@]23C)O1 [cycloasragenol, cycloastragenol]",effect on epigenetic age,[1]; telomere agonist every fourth treatment,did not show the same negative effects
same,effect on epigenetic age,[1]; telomere agonist with every C60/mitochondrial switches treatment,rapidly increase epigenetic age
"N[C@@H](Cc1ccc(O)c(O)c1)C(=O)O [L-Dopa, Levodopa]",tremors,[2],eliminated tremors
CCCCCCCCCCCCCCCCCC(=O)O [stearic acid],half-life,[3],ten to twelve hours
C[S+]([O-])CCCCN=C=S (stereo not shown) [sulforaphane],duration of activity,[4],approximately sixty minutes
same,time to maximum activity,[4],15 min
same,time to peak in the bloodstream,[3]; in vivo,≥ 15 min
same,half-life,[3],about an hour
Oc1ccc(C=Cc2cc(O)cc(O)c2)cc1 [resveratrol],epigenetic age below chronological age,"[1]; 300 mg of resveratrol one hour before C60, one treatment per week for 8 weeks",14.6 years
"O=C1c2c(O)cc(O)cc2O[C@H](c2cc(O)c(O)c(O)c2)[C@H]1O [dihydromyricetin, Dihydromyricetin]",time to elimination from the body,[3]; Liu et al. 2019,about 12 hours

# From patent publication US11541022B2, “Methods and compositions for the treatment of neurological diseases and syndromes of aging” (priority 2018, dated 2023)
